Reference: ChEMBL document CHEMBL1201862, “PubChem BioAssay data set” (2004)
Active and inactive are the calls of the source.

Assays:
INS1 [1] = assay: beta-cell survival under cytokine stress – INS-1E, ATP luminescence, dry powder, dose response (AID 488844); format: functional, cell-based; conditions: Rattus norvegicus
[2] = Trypanosoma cruzi growth suppression in host cells – NIH3T3 host cells, beta-gal luminescence, confirmation (AID 2044); format: functional, cell-based;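 further: intracellular parasites grown in NIH/3T3 mouse fibroblasts as host cells; luminescent beta-galactosidase reporter signal from transgenic T. cruzi replicating inside host cells; inhibitors lower the luminescence signal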
[3] = NIH3T3 cell viability loss – ATP luminescence, mouse fibroblasts, counter-screen, dose response (AID 2010); format: functional, cell-based;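 further: cells exposed to compound for about 90 hours before reading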
Exodeoxyribonuclease V = Exodeoxyribonuclease V (Escherichia coli (strain K12), UniProt P04993+P07648+P08394); assay: RecBCD inhibition via phage-restricted bacterial growth – absorbance, V66 E. coli, mutant T4 phage, counter-screen for AddAB inhibitor project, dose response (AID 492957); format: functional, cell-based, Escherichia coli str. K-12 substr. MG1655
[4] = Counterscreen for AddAB inhibitors: absorbance-based bacterial cell-based high throughput dose response assay for inhibitors of bacterial viability. [Related pubchem assays (depositor defined):AID435030, AID449728, AID449731, AID488942, AID488955, AID488956]; format: functional
[5] = molecular target: T1, Sentrin-specific protease 8 (Homo sapiens, UniProt Q96LD8); format: functional
T1 sequence (Q96LD8 whole entry): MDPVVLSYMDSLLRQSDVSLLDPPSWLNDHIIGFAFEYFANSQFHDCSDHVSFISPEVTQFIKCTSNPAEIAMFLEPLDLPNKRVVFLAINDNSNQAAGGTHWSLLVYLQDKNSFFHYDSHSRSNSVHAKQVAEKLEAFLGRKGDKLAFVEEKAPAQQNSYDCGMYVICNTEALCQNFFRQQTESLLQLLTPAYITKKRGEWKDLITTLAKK

[6] = molecular target: T1, Sentrin-specific protease 8; format: functional; remark: listed apart in the source
[7] = Luminescence Cell-Based/Microorganism Confirmation at Dose of Inhibitors of Trypanosoma cruzi Infection. [Related pubchem assays: 1885, 1968 ]; format: functional
[8] = Luminescence Cell-Based Secondary HTS screen to identify cytotoxic compounds of NIH3T3 cells. [Related pubchem assays: 1885, 1968 ]; format: functional
[9] = T. cruzi infection blockers in NIH3T3 cells – beta-gal luminescence, NIH3T3 host cells, confirmation (AID 2630); format: functional, cell-based; conditions: Mus musculus
[10] = luciferase reporter signal suppression in cells – H4 neuroglioma cells, luminescence, dose response (AID 1990); format: functional, cell-based
[11] = Luminescence Cell-Based Dose Response HTS to Identify Inhibitors of 5'UTR Stem-Loop Driven Prion Protein mRNA Translation in H4 Neuroglioblastoma Cells. [Related pubchem assays: 1827 (Project Summary), 1813 (Primary HTS)]; format: functional
SUMO-activating enzyme [12] = molecular target: T2, SUMO-activating enzyme (Homo sapiens, UniProt Q9UBT2); assay: blockers of UBC9-mediated SUMO conjugation – biochemical, AlphaScreen, SUMOylation inhibitor project, confirmation (AID 2018); format: functional
[13] = alpha-synuclein stem-loop luciferase translation blockers – H4 neuroglioma cells, luminescence, confirmation (AID 1988); format: functional, cell-based
SUMO-activating enzyme [14] = molecular target: T2, SUMO-activating enzyme; assay: blockers of SAE1/SAE2–UBC9 SUMO transfer – biochemical, HTRF, uHTS, primary screen (AID 2006); format: protein-complex assay
[15] = molecular target: Eukaryotic translation initiation factor 4E (Mus musculus, UniProt P63073); assay: blockers of eIF4G binding by eIF4E – biochemical, TR-FRET, dose response (AID 855); format: functional;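 further: potency for disrupting eIF4E binding to eIF4GI seen as loss of FRET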
Hexokinase HKDC1 = molecular target: T3, Hexokinase HKDC1 (Homo sapiens, UniProt Q2TB90); assay: inhibition of HKDC1 glucose phosphorylation – biochemical, W721R variant, dose response (AID 504729); format: functional
T3 sequence (Q2TB90 whole entry): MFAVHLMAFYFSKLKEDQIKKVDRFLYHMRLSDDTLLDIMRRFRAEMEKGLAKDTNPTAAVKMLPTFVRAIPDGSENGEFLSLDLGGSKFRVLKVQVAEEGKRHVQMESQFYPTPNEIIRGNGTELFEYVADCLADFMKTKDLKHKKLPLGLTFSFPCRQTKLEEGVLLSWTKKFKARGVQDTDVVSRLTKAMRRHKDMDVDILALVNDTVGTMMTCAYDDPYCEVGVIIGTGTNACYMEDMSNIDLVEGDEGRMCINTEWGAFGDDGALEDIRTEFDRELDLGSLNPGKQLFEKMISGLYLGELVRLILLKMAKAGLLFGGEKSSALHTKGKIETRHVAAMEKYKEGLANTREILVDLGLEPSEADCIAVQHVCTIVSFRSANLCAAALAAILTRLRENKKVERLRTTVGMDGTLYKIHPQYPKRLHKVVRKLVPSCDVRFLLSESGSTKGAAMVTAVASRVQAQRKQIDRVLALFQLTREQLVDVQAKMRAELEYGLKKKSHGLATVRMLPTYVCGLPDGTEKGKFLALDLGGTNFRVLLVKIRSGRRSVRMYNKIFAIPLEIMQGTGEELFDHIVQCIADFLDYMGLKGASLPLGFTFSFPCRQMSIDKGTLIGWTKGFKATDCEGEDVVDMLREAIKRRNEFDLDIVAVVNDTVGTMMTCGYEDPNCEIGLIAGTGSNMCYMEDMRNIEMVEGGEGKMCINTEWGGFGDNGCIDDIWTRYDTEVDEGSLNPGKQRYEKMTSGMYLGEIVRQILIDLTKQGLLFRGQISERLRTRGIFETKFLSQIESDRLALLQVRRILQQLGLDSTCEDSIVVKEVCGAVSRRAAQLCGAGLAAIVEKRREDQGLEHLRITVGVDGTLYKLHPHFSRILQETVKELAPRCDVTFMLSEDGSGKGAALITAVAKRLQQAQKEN

[16] = molecular target: T4, Replicative DNA helicase DnaB (Mycobacterium tuberculosis, UniProt P9WMR3); assay: DnaB intein splicing inhibitors, dose response, biochemical, cell-free fluorescence (AID 449749); format: functional
T4 sequence (P9WMR3 whole entry): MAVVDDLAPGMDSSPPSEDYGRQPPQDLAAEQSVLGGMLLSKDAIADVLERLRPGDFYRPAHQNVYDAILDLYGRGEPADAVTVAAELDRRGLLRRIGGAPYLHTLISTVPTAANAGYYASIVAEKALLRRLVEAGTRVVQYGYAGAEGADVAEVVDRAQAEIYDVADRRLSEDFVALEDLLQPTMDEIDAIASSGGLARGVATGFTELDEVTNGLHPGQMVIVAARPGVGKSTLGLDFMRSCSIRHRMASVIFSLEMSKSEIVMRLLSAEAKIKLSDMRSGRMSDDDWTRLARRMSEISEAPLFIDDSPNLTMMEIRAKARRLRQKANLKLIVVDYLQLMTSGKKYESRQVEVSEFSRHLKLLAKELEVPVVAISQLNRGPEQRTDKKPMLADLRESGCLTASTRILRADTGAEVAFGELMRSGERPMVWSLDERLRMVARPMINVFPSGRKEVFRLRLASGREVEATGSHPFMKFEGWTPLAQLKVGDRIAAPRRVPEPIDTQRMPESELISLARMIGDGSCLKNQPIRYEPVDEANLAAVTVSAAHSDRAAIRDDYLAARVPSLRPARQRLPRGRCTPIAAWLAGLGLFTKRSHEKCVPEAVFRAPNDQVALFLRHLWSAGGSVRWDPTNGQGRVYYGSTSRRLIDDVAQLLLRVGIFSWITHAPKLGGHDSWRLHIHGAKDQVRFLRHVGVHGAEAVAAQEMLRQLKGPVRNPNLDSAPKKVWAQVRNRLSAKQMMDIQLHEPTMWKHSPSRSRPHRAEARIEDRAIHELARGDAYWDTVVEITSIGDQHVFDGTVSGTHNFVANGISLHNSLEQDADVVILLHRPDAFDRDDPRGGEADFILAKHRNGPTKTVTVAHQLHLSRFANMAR

Protein RecA = molecular target: T5, Protein RecA (Mycobacterium tuberculosis, UniProt P9WHJ3); assay: Fluorescence Cell-Free Homogeneous Dose Retest to Identify Inhibitors of RecA-Intein Splicing Activity. [Related pubchem assays (depositor defined):AID2097, AID2223, AID489010, AID492950]; format: functional
T5 sequence (P9WHJ3 whole entry): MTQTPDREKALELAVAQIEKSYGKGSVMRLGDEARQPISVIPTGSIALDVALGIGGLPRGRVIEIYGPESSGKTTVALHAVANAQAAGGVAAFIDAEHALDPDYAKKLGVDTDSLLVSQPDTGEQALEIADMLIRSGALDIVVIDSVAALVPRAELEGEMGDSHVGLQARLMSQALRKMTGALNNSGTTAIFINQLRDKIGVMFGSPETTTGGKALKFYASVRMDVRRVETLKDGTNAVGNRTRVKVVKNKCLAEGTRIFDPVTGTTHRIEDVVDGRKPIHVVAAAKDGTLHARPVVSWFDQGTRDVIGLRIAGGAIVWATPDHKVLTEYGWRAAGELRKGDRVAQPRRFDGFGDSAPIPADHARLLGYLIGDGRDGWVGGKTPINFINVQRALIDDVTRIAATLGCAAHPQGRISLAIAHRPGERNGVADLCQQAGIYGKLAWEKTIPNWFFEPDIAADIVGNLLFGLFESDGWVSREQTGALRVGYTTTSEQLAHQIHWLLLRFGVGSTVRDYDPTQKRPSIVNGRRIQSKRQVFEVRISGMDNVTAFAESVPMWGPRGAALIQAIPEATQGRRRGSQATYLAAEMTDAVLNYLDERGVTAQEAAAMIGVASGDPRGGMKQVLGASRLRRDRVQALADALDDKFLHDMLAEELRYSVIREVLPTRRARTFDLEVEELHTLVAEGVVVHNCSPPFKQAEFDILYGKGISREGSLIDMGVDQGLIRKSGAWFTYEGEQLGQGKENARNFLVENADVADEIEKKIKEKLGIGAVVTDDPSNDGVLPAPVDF

[17] = molecular target: G-protein coupled receptor 55 (Homo sapiens, UniProt Q9Y2T6); assay: inhibition of LPI-stimulated GPR55 beta-arrestin translocation – imaging, U2OS, beta-arrestin-GFP, LPI agonist, primary screen (AID 2013); format: functional;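 further: antagonist potency measured as reduced agonist-driven arrestin aggregation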
[18] = molecular target: T6, Rac GTPase-activating protein 1 (Homo sapiens, UniProt Q9H0H5); assay: blockers of MgcRacGAP-driven Rac1 GTP hydrolysis – biochemical, ADP Hunter fluorescence, primary and confirmatory, confirmation (AID 624330); format: functional
T6 sequence (Q9H0H5 whole entry): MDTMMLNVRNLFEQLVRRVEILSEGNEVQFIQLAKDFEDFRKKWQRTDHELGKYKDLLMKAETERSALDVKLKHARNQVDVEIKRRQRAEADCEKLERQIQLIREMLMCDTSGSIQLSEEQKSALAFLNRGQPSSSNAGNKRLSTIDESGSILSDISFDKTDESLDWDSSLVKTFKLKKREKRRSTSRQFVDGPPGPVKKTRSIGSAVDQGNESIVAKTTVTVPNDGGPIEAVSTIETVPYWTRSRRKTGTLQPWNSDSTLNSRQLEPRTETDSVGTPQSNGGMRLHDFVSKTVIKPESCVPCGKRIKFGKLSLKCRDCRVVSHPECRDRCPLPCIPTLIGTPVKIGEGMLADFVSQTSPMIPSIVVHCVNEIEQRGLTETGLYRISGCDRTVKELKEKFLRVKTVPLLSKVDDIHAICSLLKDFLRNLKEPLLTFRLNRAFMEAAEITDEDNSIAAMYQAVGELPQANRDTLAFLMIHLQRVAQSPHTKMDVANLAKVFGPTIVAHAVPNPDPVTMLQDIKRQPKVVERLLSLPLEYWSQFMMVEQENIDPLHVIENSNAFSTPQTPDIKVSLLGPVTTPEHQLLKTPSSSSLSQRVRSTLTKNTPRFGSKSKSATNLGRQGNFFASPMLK

HEK293 = assay: EBV LMP1 TES2 canonical NF-kB signalling blockers – cell-based, HEK293, luciferase, cherry-pick, dose response (AID 588343); format: functional; conditions: Homo sapiens
INS1 [19] = assay: INS-1E survival protection against cytokine death – cell-based, luminescence, retest, dose response (AID 449756); format: functional; conditions: Rattus norvegicus;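 further: cell death triggered by IL-1 beta plus TNF-alpha plus IFN-gamma mixture; protective hits raise ATP signal compared with cytokine alone wells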

T2 sequence (Q9UBE0 whole entry): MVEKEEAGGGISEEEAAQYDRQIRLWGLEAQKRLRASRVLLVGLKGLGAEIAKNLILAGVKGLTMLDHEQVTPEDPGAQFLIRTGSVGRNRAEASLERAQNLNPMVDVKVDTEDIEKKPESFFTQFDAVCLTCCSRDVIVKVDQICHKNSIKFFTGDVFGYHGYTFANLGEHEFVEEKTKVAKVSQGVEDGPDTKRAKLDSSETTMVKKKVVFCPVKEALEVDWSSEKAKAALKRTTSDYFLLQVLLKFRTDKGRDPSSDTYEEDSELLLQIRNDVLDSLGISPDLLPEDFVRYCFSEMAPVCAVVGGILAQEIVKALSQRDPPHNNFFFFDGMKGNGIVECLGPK
T2 sequence (Q9UBT2 whole entry): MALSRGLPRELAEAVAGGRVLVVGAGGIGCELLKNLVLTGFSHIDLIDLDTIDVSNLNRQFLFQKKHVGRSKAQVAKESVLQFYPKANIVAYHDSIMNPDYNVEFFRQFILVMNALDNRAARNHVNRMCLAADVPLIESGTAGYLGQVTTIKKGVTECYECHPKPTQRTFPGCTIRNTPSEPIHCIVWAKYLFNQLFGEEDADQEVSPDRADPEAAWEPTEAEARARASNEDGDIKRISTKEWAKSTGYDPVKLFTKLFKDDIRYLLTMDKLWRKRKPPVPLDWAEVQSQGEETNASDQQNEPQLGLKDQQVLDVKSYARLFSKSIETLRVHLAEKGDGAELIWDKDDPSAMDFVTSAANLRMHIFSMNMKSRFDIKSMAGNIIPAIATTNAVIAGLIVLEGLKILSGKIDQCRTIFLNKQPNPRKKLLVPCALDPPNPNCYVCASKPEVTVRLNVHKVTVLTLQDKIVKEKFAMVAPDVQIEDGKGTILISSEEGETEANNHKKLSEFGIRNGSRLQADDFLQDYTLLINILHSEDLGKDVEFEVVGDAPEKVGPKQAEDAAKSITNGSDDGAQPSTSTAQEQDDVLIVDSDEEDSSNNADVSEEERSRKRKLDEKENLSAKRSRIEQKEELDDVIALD
Sequence of Exodeoxyribonuclease V (P04993 whole entry): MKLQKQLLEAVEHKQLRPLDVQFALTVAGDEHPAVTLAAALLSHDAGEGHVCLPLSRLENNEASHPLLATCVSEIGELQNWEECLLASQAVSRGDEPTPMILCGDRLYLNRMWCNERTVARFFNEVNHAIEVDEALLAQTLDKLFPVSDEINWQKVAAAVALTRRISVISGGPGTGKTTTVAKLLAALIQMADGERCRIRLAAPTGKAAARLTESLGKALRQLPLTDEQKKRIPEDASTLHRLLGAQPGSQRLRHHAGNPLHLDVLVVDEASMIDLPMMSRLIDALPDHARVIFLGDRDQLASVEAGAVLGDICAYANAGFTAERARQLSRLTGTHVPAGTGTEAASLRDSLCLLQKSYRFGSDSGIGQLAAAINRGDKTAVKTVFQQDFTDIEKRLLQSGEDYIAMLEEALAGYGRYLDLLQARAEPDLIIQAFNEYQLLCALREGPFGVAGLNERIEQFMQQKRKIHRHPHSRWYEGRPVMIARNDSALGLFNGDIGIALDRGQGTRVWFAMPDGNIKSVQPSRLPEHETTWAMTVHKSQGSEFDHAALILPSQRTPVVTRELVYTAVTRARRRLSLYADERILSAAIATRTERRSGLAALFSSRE
Sequence of Exodeoxyribonuclease V (P07648 whole entry): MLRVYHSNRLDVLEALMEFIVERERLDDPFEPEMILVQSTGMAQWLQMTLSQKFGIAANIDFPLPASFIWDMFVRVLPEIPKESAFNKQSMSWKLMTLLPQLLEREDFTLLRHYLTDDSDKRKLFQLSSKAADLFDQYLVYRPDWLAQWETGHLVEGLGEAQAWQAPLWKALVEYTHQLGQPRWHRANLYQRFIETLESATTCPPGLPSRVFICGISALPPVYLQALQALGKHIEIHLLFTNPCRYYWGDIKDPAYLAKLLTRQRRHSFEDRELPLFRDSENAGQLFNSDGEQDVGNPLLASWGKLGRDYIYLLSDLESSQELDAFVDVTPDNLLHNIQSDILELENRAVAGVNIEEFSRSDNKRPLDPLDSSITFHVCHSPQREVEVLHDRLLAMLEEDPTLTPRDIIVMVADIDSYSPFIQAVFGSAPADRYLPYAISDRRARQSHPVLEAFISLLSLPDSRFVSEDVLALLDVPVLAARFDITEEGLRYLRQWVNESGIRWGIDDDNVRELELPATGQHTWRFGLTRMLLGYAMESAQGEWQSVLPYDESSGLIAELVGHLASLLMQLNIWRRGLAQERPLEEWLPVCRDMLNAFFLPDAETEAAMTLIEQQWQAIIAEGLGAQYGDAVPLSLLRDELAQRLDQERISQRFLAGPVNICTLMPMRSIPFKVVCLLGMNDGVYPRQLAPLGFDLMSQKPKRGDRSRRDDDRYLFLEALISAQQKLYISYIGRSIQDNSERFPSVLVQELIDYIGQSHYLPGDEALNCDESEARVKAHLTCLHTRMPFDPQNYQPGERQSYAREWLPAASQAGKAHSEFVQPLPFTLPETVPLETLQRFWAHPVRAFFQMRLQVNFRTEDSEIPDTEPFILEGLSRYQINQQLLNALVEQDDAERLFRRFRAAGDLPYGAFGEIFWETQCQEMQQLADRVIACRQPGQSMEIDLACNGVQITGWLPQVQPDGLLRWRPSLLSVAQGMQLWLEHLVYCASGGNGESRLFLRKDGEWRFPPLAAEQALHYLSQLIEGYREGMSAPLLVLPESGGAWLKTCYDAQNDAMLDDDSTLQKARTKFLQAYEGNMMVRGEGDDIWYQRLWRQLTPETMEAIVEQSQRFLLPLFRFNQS
Sequence of Exodeoxyribonuclease V (P08394 whole entry): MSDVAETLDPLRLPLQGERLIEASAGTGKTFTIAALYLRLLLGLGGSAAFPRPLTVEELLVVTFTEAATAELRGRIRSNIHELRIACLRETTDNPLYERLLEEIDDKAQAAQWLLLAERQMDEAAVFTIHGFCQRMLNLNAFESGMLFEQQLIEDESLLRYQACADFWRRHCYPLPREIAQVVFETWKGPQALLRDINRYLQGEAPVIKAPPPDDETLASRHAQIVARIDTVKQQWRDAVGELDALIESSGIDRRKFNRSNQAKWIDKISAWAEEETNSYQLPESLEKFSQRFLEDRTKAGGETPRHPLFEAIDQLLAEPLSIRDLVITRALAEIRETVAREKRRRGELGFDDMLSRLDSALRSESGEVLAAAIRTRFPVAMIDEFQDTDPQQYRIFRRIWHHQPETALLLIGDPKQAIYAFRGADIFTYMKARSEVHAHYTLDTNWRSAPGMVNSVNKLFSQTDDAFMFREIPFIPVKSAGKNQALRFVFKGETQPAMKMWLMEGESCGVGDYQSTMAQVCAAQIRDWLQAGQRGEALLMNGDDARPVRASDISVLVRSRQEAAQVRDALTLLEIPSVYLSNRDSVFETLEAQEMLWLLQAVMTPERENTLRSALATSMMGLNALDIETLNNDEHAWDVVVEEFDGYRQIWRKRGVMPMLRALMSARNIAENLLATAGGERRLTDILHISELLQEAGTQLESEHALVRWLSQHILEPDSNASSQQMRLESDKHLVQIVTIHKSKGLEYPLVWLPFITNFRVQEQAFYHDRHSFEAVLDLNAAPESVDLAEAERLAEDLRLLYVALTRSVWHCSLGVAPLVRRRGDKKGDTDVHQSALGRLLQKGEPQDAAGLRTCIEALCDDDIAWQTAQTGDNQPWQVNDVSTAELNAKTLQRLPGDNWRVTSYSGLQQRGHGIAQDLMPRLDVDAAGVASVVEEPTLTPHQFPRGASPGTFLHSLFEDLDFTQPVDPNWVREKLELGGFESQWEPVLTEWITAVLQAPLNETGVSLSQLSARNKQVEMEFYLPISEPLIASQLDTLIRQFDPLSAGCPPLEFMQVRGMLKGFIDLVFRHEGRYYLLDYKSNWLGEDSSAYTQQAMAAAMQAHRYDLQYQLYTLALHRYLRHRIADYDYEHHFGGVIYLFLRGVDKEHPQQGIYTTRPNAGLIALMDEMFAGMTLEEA
Sequence of Eukaryotic translation initiation factor 4E (P63073 whole entry): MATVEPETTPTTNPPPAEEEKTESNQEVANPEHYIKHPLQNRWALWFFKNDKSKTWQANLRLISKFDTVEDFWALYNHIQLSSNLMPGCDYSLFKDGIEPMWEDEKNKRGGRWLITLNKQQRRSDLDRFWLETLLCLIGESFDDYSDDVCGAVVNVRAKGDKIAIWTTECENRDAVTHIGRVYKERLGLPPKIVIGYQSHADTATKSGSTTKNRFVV
Sequence of G-protein coupled receptor 55 (Q9Y2T6 whole entry): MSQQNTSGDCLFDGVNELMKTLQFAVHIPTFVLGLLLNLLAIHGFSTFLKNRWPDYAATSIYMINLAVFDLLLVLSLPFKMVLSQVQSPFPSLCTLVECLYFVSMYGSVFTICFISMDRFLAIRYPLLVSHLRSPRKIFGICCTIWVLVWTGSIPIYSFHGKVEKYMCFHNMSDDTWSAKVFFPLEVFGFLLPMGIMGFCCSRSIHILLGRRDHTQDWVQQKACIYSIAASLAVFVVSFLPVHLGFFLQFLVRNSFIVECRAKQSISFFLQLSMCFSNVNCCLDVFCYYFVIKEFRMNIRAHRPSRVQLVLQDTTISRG

## C[C@@H]1CN([C@@H](C)CO)C(=O)c2cccc(NC(=O)Nc3ccccc3)c2O[C@H]1CN(C)S(=O)(=O)c1ccc(Cl)cc1
INS1 [1]
  AC50: 116 µM (active)

## O=C(CCN1CCN(c2ccccc2)CC1)N/N=C/c1ccc([N+](=O)[O-])o1
[2]
  EC50: < 100 nM (active)
[3]
  EC50: > 60 µM (not active)
Exodeoxyribonuclease V
  IC50: > 119 µM (inactive)
[4]
  IC50: > 39.5 µM (inactive)
[5]
  IC50: 96.9 µM (inactive)
[6]
  IC50: 40 µM (active)
cells
  EC50: 37 nM (active)

## O=C(Cc1cn(Cc2cccc(Cl)c2)c2ccccc12)N1CCCCCC1
[7]
  EC50: 3.09 µM (active)
[2]
  EC50: 1750 nM (active)
[8]
  EC50: > 195 µM (not active)
[3]
  EC50: > 60 µM (not active)
[9]
  EC50: 3.09 µM (active)

## CCCCC[C@H](O)/C=C/[C@@H]1[C@@H](C/C=C\CCCC(=O)OC)[C@@H](O)C[C@H]1O
[10]
  EC50: > 120 µM (not active)
[11]
  EC50: > 120 µM (not active)
SUMO-activating enzyme [12]
  IC50: 10.5 µM (active)
[13]
  EC50: > 120 µM (not active)
SUMO-activating enzyme [14]
  IC50: 18.4 µM (active)
[15]
  IC50: 8.7 µM (active)
Hexokinase HKDC1
  IC50: 9.12 µM (active)
[16]
  AC50: 16.1 µM (active)
Protein RecA
  EC50: 12.2 µM (active)

## O=C(O)c1cccc(N2C(=O)/C(=C/c3ccc(SCc4ccc(Cl)cc4)o3)SC2=S)c1
SUMO-activating enzyme [12]
  IC50: 1.39 µM (active)
[17]
  IC50: 4.43 µM (active)
SUMO-activating enzyme [14]
  IC50: 14.6 µM (active)
[15]
  IC50: 29.9 µM (active)
[18]
  IC50: 132 µM (active)

## CSc1ccc(CN2CCCC(CNC(=O)c3ccc(F)cc3)C2)cc1 (configuration not stated)
[7]
  EC50: 7.17 µM (active)
[2]
  EC50: < 100 nM (active)
[8]
  EC50: > 195 µM (not active)
[3]
  EC50: > 30 µM (not active)
[9]
  EC50: 7.17 µM (active)
cells
  EC50: 120 nM (active)

## CCC(=O)NC(c1ccc(C)cc1)c1cc(Cl)c2cccnc2c1O (configuration not stated)
Exodeoxyribonuclease V
  IC50: > 119 µM (inactive)
[4]
  IC50: > 119 µM (inactive)
HEK293
  AC50: 12.9 µM (active)
INS1 [19]
  AC50: 1.65 µM (active)
